Assay results reported in US20240417398A1, “TETRAHYDRONAPTHYRIDINE AND RELATED ANALOGS FOR INHIBITING YAP/TAZ-TEAD” (SpringWorks Therapeutics, Inc., priority 2023, published 2024).

What follows are compounds tested on YAP/TAZ-TEAD transcription (assay: Reporter gene assay for measuring the inhibition of YAP/TAZ-TEAD transcription (TEAD-responsive element luciferase reporter, Hek293T cells)). Conditions: Hek293T cells transfected with TEAD-responsive element luciferase reporter, 24 hours incubation.
Assay type: cell-based
Procedure: Hek293T cells were cultured in DMEM supplemented with 10% fetal bovine serum, Sodium pyruvate, Sodium bicarbonate, L-glutamine. The cells were harvested and transiently transfected with TEAD-responsive element luciferase reporter. Transfected cells were plated in 384-well plate containing pre-diluted compounds. After 24 hours incubation at 37° C./5% CO2, assay plates were cooled to room temperature and levelled to an equal volume per well, prior to the addition of 25 uL luciferase substrate SteadyLite (Perkin Elmer)/well. The plate was shaken for 10 min at 600 rpm, centrifuged for 1 min at 500 rpm and measured with an Envision reader (PerkinElmer). The amount of relative light units produced by the TEAD reporter was used to calculate the percentage of inhibition.
The percent of reporter inhibition was calculated in the presence of a positive control inhibitor (100% inhibition) versus a condition with the presence of the vehicle basal activity of the reporter (0% inhibition). The ability of a test compound to inhibit this activity was determined as: Percentage inhibition=[1-((RLU determined in the presence of vehicle−RLU determined for sample with test compound present) divided by (RLU determined in the presence of vehicle−RLU determined for sample with positive control inhibitor))]*100.
The activities of example compounds tested are depicted in Table 3. The activity ranges A, B and C refer to IC50 values in the reporter gene assay as follows: “A”: IC50<1 μM; “B”: 1 μM≤IC50 10 μM and “C”: IC50>10 μM; NT=not tested.

| Compound | IC50 [µM] |
| --- | --- |
| C=CC(=O)NCC1Cc2ncccc2N(c2ccc(C(F)(F)F)cc2)C1 (single isomer, unassigned) [Cpd. No. 10-En2, (R)- or (S)-N-((1-(4-(trifluoromethyl)phenyl)-1,2,3,4-tetrahydro-1,5-naphthyridin-3-yl)methyl)acrylamide] | < 1 |
| [2H]C([2H])([2H])C(=O)NCC1Cc2ncccc2N(c2ccc(C(F)(F)F)cc2)C1 (single isomer, unassigned) [Cpd. No. 34-En1, (R)- or (S)-N-((1-(4-(trifluoromethyl)phenyl)-1,2,3,4-tetrahydro-1,5-naphthyridin-3-yl)methyl)acetamide-2,2,2-d3] | 1 to 10 |
| O=C(CC(F)(F)F)NCC1Cc2ncccc2N(c2ccc(C(F)(F)F)cc2)C1 (single isomer, unassigned) [Cpd. No. 38-En2, (R)- or (S)-3,3,3-trifluoro-N-((1-(4-(trifluoromethyl)phenyl)-1,2,3,4-tetrahydro-1,5-naphthyridin-3-yl)methyl)propanamide] | < 1 |
| CC(=O)NCC1(C)Cc2ncccc2N(c2ccc(C(F)(F)F)cc2)C1 (single isomer, unassigned) [Cpd. No. 47-En2, (R)- or (S)-N-((3-methyl-1-(4-(trifluoromethyl)phenyl)-1,2,3,4-tetrahydro-1,5-naphthyridin-3-yl)methyl)acetamide] | > 10 |

Same assay, conditions: Homo sapiens, HEK-293T, 24 h, Hek293T cells transfected with TEAD-responsive element luciferase reporter, 24 hours incubation

| Compound | IC50 [µM] |
| --- | --- |
| CC(=O)NCC1Cc2ncccc2N(c2ccc(C(F)(F)F)cc2)C1 (single isomer, unassigned) [Cpd. No. 12-En1, (R)- or (S)-N-((1-(4-(trifluoromethyl)phenyl)-1,2,3,4-tetrahydro-1,5-naphthyridin-3-yl)methyl)acetamide] | 1 to 10 |
| COC(=O)NCC1Cc2ncccc2N(c2ccc(C(F)(F)F)cc2)C1 (single isomer, unassigned) [Cpd. No. 15-En2, (R)- or (S)-methyl ((1-(4-(trifluoromethyl)phenyl)-1,2,3,4-tetrahydro-1,5-naphthyridin-3-yl)methyl)carbamate] | 1 to 10 |
| CCC(=O)NCC1Cc2ncccc2N(c2ccc(C(F)(F)F)cc2)C1 (single isomer, unassigned) [Cpd. No. 17-En1, (R)- or (S)-N-((1-(4-(trifluoromethyl)phenyl)-1,2,3,4-tetrahydro-1,5-naphthyridin-3-yl)methyl)propionamide] | 1 to 10 |
| COc1ccc2c(n1)CC(CNC(C)=O)CN2c1ccc(C(F)(F)F)cc1 (single isomer, unassigned) [Cpd. No. 22-En1, (R)- or (S)-N-((6-methoxy-1-(4-(trifluoromethyl)phenyl)-1,2,3,4-tetrahydro-1,5-naphthyridin-3-yl)methyl)acetamide] | 1 to 10 |
| CC(=O)NCC1Cc2nc(C)ccc2N(c2ccc(C(F)(F)F)cc2)C1 (single isomer, unassigned) [Cpd. No. 26-En1, (R)- or (S)-N-((6-methyl-1-(4-(trifluoromethyl)phenyl)-1,2,3,4-tetrahydro-1,5-naphthyridin-3-yl)methyl)acetamide] | < 1 |
| O=C(CC(F)(F)F)NCC1Cc2ncccc2N(c2ccc(C(F)(F)F)cc2)C1 (single isomer, unassigned) [Cpd. No. 38-En1, (R)- or (S)-3,3,3-trifluoro-N-((1-(4-(trifluoromethyl)phenyl)-1,2,3,4-tetrahydro-1,5-naphthyridin-3-yl)methyl)propanamide] | 1 to 10 |
| CCC(=O)NCC1Cc2c(Oc3cccnc3)cccc2N(c2ccc(C(F)(F)F)cc2)C1 (stereo not drawn) [Cpd. No. 1, N-((5-(pyridin-3-yloxy)-1-(4-(trifluoromethyl)phenyl)-1,2,3,4-tetrahydroquinolin-3-yl)methyl)propionamide] | < 1 |
| CS(=O)(=O)NCC1Cc2c(Oc3cccnc3)cccc2N(c2ccc(C(F)(F)F)cc2)C1 (stereo not drawn) [Cpd. No. 2, N-((5-(pyridin-3-yloxy)-1-(4-(trifluoromethyl)phenyl)-1,2,3,4-tetrahydroquinolin-3-yl)methyl)methanesulfonamide] | 1 to 10 |
| C=CC(=O)NCC1Cc2c(Oc3cccnc3)cccc2N(c2ccc(C(F)(F)F)cc2)C1 (stereo not drawn) [Cpd. No. 3, N-((5-(pyridin-3-yloxy)-1-(4-(trifluoromethyl)phenyl)-1,2,3,4-tetrahydroquinolin-3-yl)methyl)acrylamide] | < 1 |
| CCC(=O)NCC1Cc2c(OCc3cc(=O)[nH]c(=O)[nH]3)cccc2N(c2ccc(C(F)(F)F)cc2)C1 (stereo not drawn) [Cpd. No. 5, N-((5-((2,6-dioxo-1,2,3,6-tetrahydropyrimidin-4-yl)methoxy)-1-(4-(trifluoromethyl)phenyl)-1,2,3,4-tetrahydroquinolin-3-yl)methyl)propionamide] | < 1 |
| CS(=O)(=O)NCC1Cc2c(OCc3cc(=O)[nH]c(=O)[nH]3)cccc2N(c2ccc(C(F)(F)F)cc2)C1 (stereo not drawn) [Cpd. No. 8, N-((5-((2,6-dioxo-1,2,3,6-tetrahydropyrimidin-4-yl)methoxy)-1-(4-(trifluoromethyl)phenyl)-1,2,3,4-tetrahydroquinolin-3-yl)methyl)methanesulfonamide] | 1 to 10 |
| CS(=O)(=O)NCC1Cc2c(OCc3cc[nH]c(=O)c3)cccc2N(c2ccc(C(F)(F)F)cc2)C1 (stereo not drawn) [Cpd. No. 9, N-((5-((2-oxo-1,2-dihydropyridin-4-yl)methoxy)-1-(4-(trifluoromethyl)phenyl)-1,2,3,4-tetrahydroquinolin-3-yl)methyl)methanesulfonamide] | < 1 |
| O=C(O)CC1Cc2ncccc2N(c2ccc(C(F)(F)F)cc2)C1 (stereo not drawn) [Cpd. No. 13, 2-(1-(4-(trifluoromethyl)phenyl)-1,2,3,4-tetrahydro-1,5-naphthyridin-3-yl)acetic acid] | 1 to 10 |
| CC(=O)NCC1Cc2c(ccc[n+]2[O-])N(c2ccc(C(F)(F)F)cc2)C1 (stereo not drawn) [Cpd. No. 16, 7-(acetamidomethyl)-5-(4-(trifluoromethyl)phenyl)-5,6,7,8-tetrahydro-1,5-naphthyridine 1-oxide] | 1 to 10 |
| CCC(=O)NCC1Cc2ncccc2N(c2ccc(C(F)(F)F)cc2)C1 (stereo not drawn) [Cpd. No. 17, N-((1-(4-(trifluoromethyl)phenyl)-1,2,3,4-tetrahydro-1,5-naphthyridin-3-yl)methyl)propionamide] | < 1 |
| O=C(NCC1Cc2ncccc2N(c2ccc(C(F)(F)F)cc2)C1)C1CC1 (stereo not drawn) [Cpd. No. 18, N-((1-(4-(trifluoromethyl)phenyl)-1,2,3,4-tetrahydro-1,5-naphthyridin-3-yl)methyl)cyclopropanecarboxamide] | < 1 |
| CNS(=O)(=O)NCC1Cc2ncccc2N(c2ccc(C(F)(F)F)cc2)C1 (stereo not drawn) [Cpd. No. 19, N-(methylsulfamoyl)-1-[1-[4-(trifluoromethyl)phenyl]-3,4-dihydro-2H-1,5-naphthyridin-3-yl]methanamine] | < 1 |
| O=C(O)/C=C/C1Cc2ncccc2N(c2ccc(C(F)(F)F)cc2)C1 (stereo not drawn) [Cpd. No. 20, (E)-3-(1-(4-(trifluoromethyl)phenyl)-1,2,3,4-tetrahydro-1,5-naphthyridin-3-yl)acrylic acid] | < 1 |
| C=CC(=O)NCC1Cc2nc(OC)ccc2N(c2ccc(C(F)(F)F)cc2)C1 (stereo not drawn) [Cpd. No. 21, N-((6-methoxy-1-(4-(trifluoromethyl)phenyl)-1,2,3,4-tetrahydro-1,5-naphthyridin-3-yl)methyl)acrylamide] | < 1 |
| COc1ccc2c(n1)CC(CNC(C)=O)CN2c1ccc(C(F)(F)F)cc1 (stereo not drawn) [Cpd. No. 22, N-((6-methoxy-1-(4-(trifluoromethyl)phenyl)-1,2,3,4-tetrahydro-1,5-naphthyridin-3-yl)methyl)acetamide] | < 1 |
| CC(=O)NCC1Cc2nc(O)ccc2N(c2ccc(C(F)(F)F)cc2)C1 (stereo not drawn) [Cpd. No. 23, N-((6-hydroxy-1-(4-(trifluoromethyl)phenyl)-1,2,3,4-tetrahydro-1,5-naphthyridin-3-yl)methyl)acetamide] | > 10 |
| O=C(O)COC1Cc2ncccc2N(c2ccc(C(F)(F)F)cc2)C1 (stereo not drawn) [Cpd. No. 24, 2-((1-(4-(trifluoromethyl)phenyl)-1,2,3,4-tetrahydro-1,5-naphthyridin-3-yl)oxy)acetic acid] | > 10 |
| FC(F)(F)c1ccc(N2CC(CNC3COC3)Cc3ncccc32)cc1 (stereo not drawn) [Cpd. No. 25, N-((1-(4-(trifluoromethyl)phenyl)-1,2,3,4-tetrahydro-1,5-naphthyridin-3-yl)methyl)oxetan-3-amine] | > 10 |
| CC(=O)NCC1Cc2c(cc[nH]c2=O)N(c2ccc(C(F)(F)F)cc2)C1 (stereo not drawn) [Cpd. No. 27, N-((5-oxo-1-(4-(trifluoromethyl)phenyl)-1,2,3,4,5,6-hexahydro-1,6-naphthyridin-3-yl)methyl)acetamide] | > 10 |
| O=C1CC[C@@H](C(=O)NCC2Cc3ncccc3N(c3ccc(C(F)(F)F)cc3)C2)N1 (stereo partly drawn) [Cpd. No. 28, (2S)-5-oxo-N-((1-(4-(trifluoromethyl)phenyl)-1,2,3,4-tetrahydro-1,5-naphthyridin-3-yl)methyl)pyrrolidine-2-carboxamide] | > 10 |
| O=C1CC[C@H](C(=O)NCC2Cc3ncccc3N(c3ccc(C(F)(F)F)cc3)C2)N1 (stereo partly drawn) [Cpd. No. 29, (2R)-5-oxo-N-((1-(4-(trifluoromethyl)phenyl)-1,2,3,4-tetrahydro-1,5-naphthyridin-3-yl)methyl)pyrrolidine-2-carboxamide] | < 1 |
